The text below walks through data of patent publication US20230416329A1, “A PEPTIDE WITH DISULFIDE BONDS AND INHIBITORY ACTIVITY AGAINST SERINE PROTEASES, DERIVED HYBRID PEPTIDES THEREOF, AND USES THEREOF” (INSTITUTE OF MATERIA MEDICA , CHINESE ACADEMY OF MEDICAL …, priority 2020, published 2023).

Structures are written as SMILES. Bridge positions count the residues as written; N and C are the ends. Peptide text beside a SMILES is read from it.

Data set [1] has as its target T1, trypsin (Bos taurus, UniProt P00760).
T1 sequence (P00760 24-246): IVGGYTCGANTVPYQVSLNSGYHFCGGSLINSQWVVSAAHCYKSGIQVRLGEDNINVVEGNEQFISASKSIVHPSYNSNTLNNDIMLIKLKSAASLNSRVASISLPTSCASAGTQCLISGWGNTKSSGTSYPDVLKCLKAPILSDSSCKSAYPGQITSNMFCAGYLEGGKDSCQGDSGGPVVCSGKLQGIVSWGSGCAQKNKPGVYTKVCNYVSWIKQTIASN
Nature of the data set: in vitro. The gist of the method:
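Peptides were preincubated for 5 min at 37 °C and then digested with 0.05 μg/μL trypsin solution (stock). Remaining intact peptide was quantified as RP-HPLC peak area.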

The target of data set [2] is chymotrypsin (Bos taurus, UniProt P00766). Briefly: in vitro. To be noted: for Remaining peak area (%)/chymotrypsin: 0 h; for remaining at 0.025 h, 60 μM / remaining at 0.05 h, 60 μM / remaining at 0.075 h, 60 μM / remaining at 0.1 h, 60 μM / remaining at 0.15 h, 60 μM / remaining at 0.25 h, 60 μM / remaining at 0.5 h, 60 μM / remaining at 1 h, 60 μM: isolated enzyme chymotrypsin, pH 7.8, Remaining peak area (%)/chymotrypsin. Summed up: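 Peptide and 0.05 μg/μL chymotrypsin were preincubated at 37 °C for 5 min, then mixed. Aliquots taken from 1.5 up to 60.0 min were quenched with 10% TFA, and remaining peptide was measured as RP-HPLC peak area.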

For data set [3], the target named is elastase (Sus scrofa, UniProt P00772). Briefly: in vitro. Here is the method: FIG. 19. […] At different time point, 25 μL aliquots was taken out, and 10% (v/v) TFA was added to terminate the reaction.
Sequence of elastase (P00772 27-266): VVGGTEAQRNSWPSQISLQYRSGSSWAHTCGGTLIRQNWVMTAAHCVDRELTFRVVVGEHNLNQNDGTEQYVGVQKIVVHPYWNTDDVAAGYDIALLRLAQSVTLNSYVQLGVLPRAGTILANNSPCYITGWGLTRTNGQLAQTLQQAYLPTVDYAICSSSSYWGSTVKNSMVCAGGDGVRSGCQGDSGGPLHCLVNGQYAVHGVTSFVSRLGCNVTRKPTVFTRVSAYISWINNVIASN
(§1) Mix by centrifugation at 8000 rpm for 30 seconds.
Arrange a certain volume of 0.5 μg/μL elastase solution in another sterile EP. Incubate the EP tubes containing peptides and enzymes at 37° C. for 5 min, and then add 4.5 μL of elastase solution to each EP tube containing peptides and mix well. Start timing and remove 25 μL of reaction solution at 1.5, 3.0, 4.5, 6.0, 9.0, 15.0, 30.0, and 60.0 min later, respectively. Add 3.75 μL of 10% TFA to terminate the reaction and mix well by centrifugation at 8000 rpm for 30 seconds.
Referring to the experimental method in Example 5, in vitro stability of salmon Calcitonin analogs with oral administration activity to the enzymatic hydrolysis by trypsin, chymotrypsin and elastase were performed.
Referring to the experimental method in Example 5, in vitro stability of IL-17A inhibitory peptides towards the enzymatic hydrolysis by trypsin, chymotrypsin and elastase were performed.

The target in data set [4] is DPP-IV (Homo sapiens, UniProt P27487). Briefly: Tolerance of GLP-1 and its analogues to DPP-IV (RP-HPLC remaining peak area). Type of data set: in vitro ADME. To be noted: peptide 25 μM, DPP-IV 0.5 ng/μL, 37° C. As for the experimental part: as §1
Sequence of DPP-IV (P27487 whole entry, species assumed): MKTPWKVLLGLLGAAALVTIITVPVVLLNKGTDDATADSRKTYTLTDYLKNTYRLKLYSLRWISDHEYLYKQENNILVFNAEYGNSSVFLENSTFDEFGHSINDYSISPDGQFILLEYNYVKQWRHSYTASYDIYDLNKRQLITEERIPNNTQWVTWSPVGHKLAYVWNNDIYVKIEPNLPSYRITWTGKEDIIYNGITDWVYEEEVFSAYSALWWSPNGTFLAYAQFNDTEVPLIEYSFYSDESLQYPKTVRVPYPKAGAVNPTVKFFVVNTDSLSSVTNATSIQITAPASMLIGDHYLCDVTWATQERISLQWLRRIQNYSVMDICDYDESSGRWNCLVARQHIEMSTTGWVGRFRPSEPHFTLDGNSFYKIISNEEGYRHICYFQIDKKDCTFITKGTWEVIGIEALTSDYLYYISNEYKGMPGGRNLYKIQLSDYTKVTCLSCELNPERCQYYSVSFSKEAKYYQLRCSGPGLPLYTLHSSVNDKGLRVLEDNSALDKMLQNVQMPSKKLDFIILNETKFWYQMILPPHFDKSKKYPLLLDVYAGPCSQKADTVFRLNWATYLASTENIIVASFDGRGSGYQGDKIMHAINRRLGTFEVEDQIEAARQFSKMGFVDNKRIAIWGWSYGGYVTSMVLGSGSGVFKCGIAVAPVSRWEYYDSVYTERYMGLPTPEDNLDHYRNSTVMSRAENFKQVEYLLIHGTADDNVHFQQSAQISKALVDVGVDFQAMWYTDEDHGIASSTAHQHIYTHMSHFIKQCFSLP
(2) Arrange a certain volume of 0.005 μg/μL DPP-IV solution in another sterile EP.

Data set [5] in a line: Stability of GLP-1 and its analogues in human serum. To be noted: 25% (v/v) human serum.
Method: The amount of the prototype peptide at 0 h was taken as 100%. At different time point, 100 μL aliquots was taken out, and 300 μL precooled anhydrous methanol was added to terminate the reaction. The remaining percentage (%) of the peptide relative to the prototype peptide at that time point was analyzed by reverse phase high performance liquid chromatography. The experiment was performed with three replicates, and data were expressed as “mean±standard deviation”. The sample was subjected to high-speed centrifugation, supernatant extraction, and freeze drying, followed by dissolution in 50% (v/v) methanol/water solution, and analyzed by reverse phase high performance liquid chromatography. The experiment was performed with three replicates, and data were expressed as “mean±standard deviation”.
Invert and mix thoroughly, then leave at −20° C. overnight. At the same time, take three sterile EP tubes and add 25 μL of human serum, 75 μL of 50 mM Tris-HCl buffer (pH7.0), and 300 μL of pre-cold absolute methanol. Invert and mix thoroughly, then leave at −20° C. overnight as a negative control, so as to eliminate the interference of proteins or peptides contained in human serum at the peak time of the target peptide after methanol precipitation.
Arrange a certain volume of human serum in another sterile EP. Incubate the EP tubes containing peptides and serum at 37° C. for 10 min, and add 137.5 μL of human serum to each EP tube containing peptides and mix well. […] Start timing and remove 100 μL of reaction solution at 0.5, 2.0, 4.0, 8.0, and 12.0 h later, respectively. Add 300 μL of pre-cold absolute methanol. Invert and mix thoroughly, then leave at −20° C. overnight. […] There are three replicates at each time point, and the peak area of the peptide at each time point is detected using reverse phase high-performance liquid chromatography (RP-HPLC). The ratio of the remaining peak area of the sample at detection time T (h) to the peak area of the prototype peptide at 0 h is calculated as the remaining percentage (%) of the peptide.
Setting [6] is: isolated enzyme elastase, pH 8, Remaining peak area (%)/elastase.

What is called amount remaining is what is left of the initial amount, in per cent. A lower amount remaining goes with more turnover. For the compound `CC[C@H](C)[C@H](N)C(=O)N[C@@H](Cc1c[nH]cn1)C(=O)N[C@H](C(=O)N[C@H](C(=O)N[C@H](C(=O)N1CCC[C@H]1C(=O)N[C@@H](C)C(=O)N[C@@H](CC(=O)O)C(=O)N[C@@H](CC(C)C)C(=O)N[C@@H](Cc1c[nH]c2ccccc12)C(=O)N[C@@H](CC(=O)O)C(=O)N[C@@H](Cc1c[nH]c2ccccc12)C(=O)N[C@H](C(=O)N[C@@H](CC(N)=O)C(=O)O)[C@@H](C)CC)[C@@H](C)CC)[C@@H](C)O)C(C)C` [17A, reference compound], the “stability towards trypsin hydrolysis (in words)” value in data set [1] was “very stable towards trypsin”. Moreover, in data set [2], the “stability towards chymotrypsin hydrolysis (in words)” value was “unstable towards chymotrypsin and elastase”; the “Remaining peak area (%)/chymotrypsin” value is given as 100.0 ± 0.0%; the amount remaining at 0.025 h, 60 μM is 68.8 ± 5.5%; the fraction remaining at 0.05 h, 60 μM is 59.2 ± 6.3%. In data set [2], this compound had a share remaining at 0.075 h, 60 μM of 46.2 ± 5.2%; a fraction remaining at 0.1 h, 60 μM of 41.4 ± 4.5%; a fraction remaining at 0.15 h, 60 μM of 24.3 ± 1.2%. In addition, in data set [3], the “stability towards elastase hydrolysis (in words)” value was “unstable towards chymotrypsin and elastase”.
For `CC[C@H](C)[C@H](N)C(=O)N[C@@H](Cc1c[nH]cn1)C(=O)N[C@H](C(=O)N[C@H](C(=O)N[C@H](C(=O)N1CCC[C@H]1C(=O)N[C@@H](C)C(=O)N[C@@H](CC(=O)O)C(=O)N[C@@H](CC(C)C)C(=O)N[C@@H](Cc1c[nH]c2ccccc12)C(=O)N[C@@H](CC(=O)O)C(=O)N[C@@H](Cc1c[nH]c2ccccc12)C(=O)N[C@H](C(=O)N[C@@H](CC(N)=O)C(=O)NCC(=O)N[C@H](C(=O)N[C@H]1CSSC[C@@H](C(=O)N[C@@H](CCC(N)=O)C(=O)O)NC(=O)[C@H]([C@@H](C)CC)NC(=O)[C@@H]2CCCN2C(=O)[C@@H]2CCCN2C(=O)[C@H]([C@@H](C)CC)NC(=O)[C@H](CO)NC(=O)[C@H](C)NC(=O)[C@H]([C@@H](C)O)NC1=O)[C@@H](C)CC)[C@@H](C)CC)[C@@H](C)CC)[C@@H](C)O)C(C)C` [17A-EC] (H-IHVTIPADLWDWINGICTASIPPICQ-OH; disulfide 17-25), in data set [2], the “Remaining peak area (%)/chymotrypsin” value amounted to 100.0 ± 0.0%; the share remaining at 0.025 h, 60 μM worked out at 85.5%; the share remaining at 0.05 h, 60 μM was determined as 93.8 ± 2.4%; the fraction remaining at 0.075 h, 60 μM came out at 89.6%. In data set [2], this compound showed a fraction remaining at 0.1 h, 60 μM of 91.6 ± 5.3%; an amount remaining at 0.25 h, 60 μM of 79.8 ± 2.6%; a fraction remaining at 0.5 h, 60 μM of 80.9%; a fraction remaining at 1 h, 60 μM of 68%. In addition, the “stability towards elastase hydrolysis (in words)” value in data set [3] is given as “tolerated to the degradation of corresponding serine proteases”.
Turning to `CC[C@H](C)[C@H](NC(=O)CNC(=O)[C@@H]1CCCN1C(=O)[C@@H](NC(=O)CNC(=O)[C@H](CO)NC(=O)CNC(=O)[C@@H](NC(=O)[C@H](CC(N)=O)NC(=O)[C@@H](NC(=O)[C@H](CCCNC(=N)N)NC(=O)[C@@H]1CCCN1C(=O)[C@H](Cc1ccc(O)cc1)NC(=O)[C@@H](NC(=O)[C@H](CCC(N)=O)NC(=O)[C@H](CC(C)C)NC(=O)[C@H](CCCCN)NC(=O)[C@H](Cc1c[nH]cn1)NC(=O)[C@H](C)NC(=O)[C@H](CCC(=O)O)NC(=O)[C@H](CCC(N)=O)NC(=O)[C@H](CO)NC(=O)[C@H](CC(C)C)NC(=O)[C@H](CCCCN)NC(=O)CNC(=O)[C@H](CC(C)C)NC(=O)CNC(=O)[C@@H]1CSSC[C@H](N)C(=O)N[C@@H](CO)C(=O)N[C@@H](CC(N)=O)C(=O)N[C@@H](CC(C)C)C(=O)N[C@@H](CO)C(=O)N[C@@H]([C@@H](C)O)C(=O)N1)[C@@H](C)O)[C@@H](C)O)[C@@H](C)O)[C@@H](C)O)C(=O)N[C@H]1CSSC[C@@H](C(=O)N[C@@H](CCC(N)=O)C(=O)O)NC(=O)[C@H]([C@@H](C)CC)NC(=O)[C@@H]2CCCN2C(=O)[C@@H]2CCCN2C(=O)[C@H]([C@@H](C)CC)NC(=O)[C@H](CO)NC(=O)[C@H](C)NC(=O)[C@H]([C@@H](C)O)NC1=O` [Cal-EC], in data set [2], the “stability towards chymotrypsin hydrolysis (in words)” value is reported as “certain tolerance to chymotrypsin”; the “Remaining peak area (%)/chymotrypsin” value is listed as 100.0 ± 0.0%; the share remaining at 0.025 h, 60 μM was determined as 95.4%; the amount remaining at 0.05 h, 60 μM is 31.3%. In data set [2], this compound had an amount remaining at 0.1 h, 60 μM of 29.3 ± 1.4%; a share remaining at 0.15 h, 60 μM of 27.8 ± 0.2%; a fraction remaining at 0.25 h, 60 μM of 22.3%; a share remaining at 0.5 h, 60 μM of 21.4%. This compound also yielded a fraction remaining at 1 h, 60 μM in data set [2] of 19.3%. In addition, the “stability towards elastase hydrolysis (in words)” value in data set [3] is given as “resistant to the corresponding protease degradation”.
For `CC[C@H](C)[C@H](NC(=O)[C@H](Cc1ccccc1)NC(=O)[C@H](CCC(=O)O)NC(=O)[C@H](CCCCN)NC(=O)[C@H](C)NC(=O)[C@H](C)NC(=O)[C@H](CCC(N)=O)NC(=O)CNC(=O)[C@H](CCC(=O)O)NC(=O)[C@H](CC(C)C)NC(=O)[C@H](Cc1ccc(O)cc1)NC(=O)[C@H](CO)NC(=O)[C@H](CO)NC(=O)[C@@H](NC(=O)[C@H](CC(=O)O)NC(=O)[C@H](CO)NC(=O)[C@@H](NC(=O)[C@H](Cc1ccccc1)NC(=O)[C@@H](NC(=O)CNC(=O)[C@H](CCC(=O)O)NC(=O)[C@H](C)NC(=O)[C@H](Cc1c[nH]cn1)NC(=O)CNC(=O)CNC(=O)[C@@H](NC(=O)[C@@H]1CCCN1C(=O)[C@@H](NC(=O)CN)[C@@H](C)CC)[C@@H](C)CC)[C@@H](C)O)[C@@H](C)O)C(C)C)C(=O)N[C@@H](C)C(=O)N[C@@H](Cc1c[nH]c2ccccc12)C(=O)N[C@@H](CC(C)C)C(=O)N[C@H](C(=O)N[C@@H](CCCCN)C(=O)NCC(=O)N[C@@H](CCCNC(=N)N)C(=O)NCC(=O)NCC(=O)N[C@@H](CCCCN)C(=O)NCC(=O)N[C@@H](CC(C)C)C(=O)N[C@H]1CSSC[C@@H](C(=O)N[C@@H](Cc2ccc(O)cc2)C(=O)O)NC(=O)[C@H](CCC(N)=O)NC(=O)[C@@H]2CCCN2C(=O)[C@@H]2CCCN2C(=O)[C@H]([C@@H](C)CC)NC(=O)[C@H](CO)NC(=O)[C@H](C)NC(=O)[C@H]([C@@H](C)O)NC1=O)C(C)C` [D-GLP-1-EC1], the “Remaining peak area (%)/DPP-IV” value in data set [4] (0.0 h) was determined as 100.0 ± 0.0%. The compound further came in with an amount remaining at 0.5 h, 25 μM in data set [4] (isolated DPP-IV enzyme in buffer, pH 8, 0.5 h) of 82.5 ± 0.6%. In data set [4] (isolated DPP-IV enzyme in buffer, pH 8, 2.0 h), this compound yielded a fraction remaining at 2 h, 25 μM of 81.2 ± 3.9%. In data set [4] (isolated DPP-IV enzyme in buffer, pH 8, 4.0 h), the amount remaining at 4 h, 25 μM amounted to 84 ± 2.2%. In data set [4] (isolated DPP-IV enzyme in buffer, pH 8, 8.0 h), this compound gave a share remaining at 8 h, 25 μM of 82.5 ± 1.6%. This compound registered a share remaining at 12 h, 25 μM in data set [4] (isolated DPP-IV enzyme in buffer, pH 8, 12.0 h) of 83.5 ± 0.5%. In data set [3] (setting [6]), this compound registered a share remaining at 0.025 h, 60 μM of 73.1 ± 5%; a share remaining at 0.05 h, 60 μM of 73.8 ± 2.8%; a share remaining at 0.075 h, 60 μM of 70.4 ± 2%; a fraction remaining at 0.1 h, 60 μM of 68.6 ± 2.4%. In data set [3] (setting [6]), this compound showed a fraction remaining at 0.15 h, 60 μM of 66.9 ± 3.9%; a fraction remaining at 0.25 h, 60 μM of 62.1 ± 4.3%; an amount remaining at 0.5 h, 60 μM of 58.4 ± 4.6%; a share remaining at 1 h, 60 μM of 44.5 ± 0.9%. Moreover, in data set [5] (0.0 h, peptide 0.03 mM, 37° C.), the “Remaining peak area (%)/human serum” value came to 100.0 ± 0.0%. In data set [5], the “serum stability (in words)” value is on record as “more stable in serum”. In data set [5] (human, pH 7), this compound came in with an amount remaining at 0.5 h, 0.03 mM of 73.7 ± 3.7%; a share remaining at 2 h, 0.03 mM of 63.5 ± 4.8%; a fraction remaining at 4 h, 0.03 mM of 46.6 ± 6.4%; a share remaining at 8 h, 0.03 mM of 42.4 ± 3.5%. In data set [5] (human, pH 7), this compound registered a fraction remaining at 12 h, 0.03 mM of 27.4 ± 0.3%.
